Experiments:
Type in all cases: cell-based, human
[1] = system: hVPr-GFP hESCs; experiment: Endothelial (EC) differentiation of hVPr-GFP hESC embryoid bodies (phase 1)
Description: Human VPr-GFP hESCs were grown to confluence on Matrigel™ (BD Bioscience) and then incubated in 5 units/ml dispase (Gibco) until colonies were completely detached from the substrate. Human VPr-GFP EBs were washed and cultured in hESC medium on ultra low attachment plates (Corning) and cultured in the conditions described, with replacement of cytokine supplemented medium every 48 hours. Embryoid bodies were fixed in 4% paraformaldehyde and frozen for cryosectioning and staining.
Embryoid bodies were generated and cultured in base hESC medium, supplemented with the cytokines as shown. Briefly, embryoid bodies were generated in hESC base medium without FGF-2. On the morning following generation of EBs (day 0), medium was supplemented with 20 ng/ml BMP4 (R&D) (removed at day 7); on day 1, medium was supplemented with 10 ng/ml ActivinA (R&D) (removed at day 4); on day 2, medium was supplemented with 8 ng/ml FGF-2 (Peprotech) (remained for the duration of culture); on day 4, EBs were transferred to adherent conditions on Matrigel™-coated plates and medium was supplemented with 25 ng/ml VEGF-A (Peprotech) (remained for the duration of culture); […] duration. Cultures were dissociated using 0.5% Trypsin/EDTA (Gibco) or Accutase (eBioscience). Absolute yield as well as ratio of input hESCs to differentiated ECs was calculated from the number of live cells recovered from differentiation cultures at days 0, 14 and 20. Purified ECs could be frozen and thawed in 10% DMSO with greater than 90% recovery.
(§1) ECs were isolated from differentiation cultures using Magnetic Activated Cell Sorting (MACS; Miltenyi Biotech) with an antibody against CD31 conjugated to magnetic microbeads. Alternatively, cells were isolated by virtue of the expression of GFP/YFP or a fluorophore conjugated antibody to human CD31 or VEGFR2 (BD) using a FACS AriaII (BD).
Total RNA was prepared from cultured cells using the RNeasy™ extraction kit (Qiagen) and reverse transcribed using Superscript II reverse transcriptase (Invitrogen) according to the manufacturer's instructions. Relative quantitative PCR was performed on a 7500 Fast Real Time PCR System (Applied Biosystems) using either TaqMan PCR mix along with Id1 and β-actin primer pairs, or SYBR Green PCR mix (Applied Biosystems). […]
This EC reporter hESC line was also used to monitor the development of a chemically defined, serum-free methodology that could effectively augment vascular differentiation, consisting of two phases. […] Although these growth conditions promoted formation of hVPr-GFP^+ structures, the yield of dissociated hESC-derived ECs obtained by fluorescence-activated cell sorting (FACS) was low, and the few isolated ECs could not be expanded without the majority of derivatives assuming a non-EC phenotype. […]

[2] = system: hESC-derived ECs; experiment: Expansion of isolated hESC-derived ECs with or without SB431542 (phase 2)
Description: (§2) Embryoid bodies were generated and cultured in base hESC medium, supplemented with the cytokines as shown. Briefly, embryoid bodies were generated in hESC base medium without FGF-2. On the morning following generation of EBs (day 0), medium was supplemented with 20 ng/ml BMP4 (R&D) (removed at day 7); on day 1, medium was supplemented with 10 ng/ml ActivinA (R&D) (removed at day 4); on day 2, medium was supplemented with 8 ng/ml FGF-2 (Peprotech) (remained for the duration of culture); on day 4, EBs were transferred to adherent conditions on Matrigel™-coated plates and medium was supplemented with 25 ng/ml VEGF-A (Peprotech) (remained for the duration of culture); on day 7, SB431542 (Tocris) was added at 10 μM concentration and remained for indicated duration. Cultures were dissociated using 0.5% Trypsin/EDTA (Gibco) or Accutase (eBioscience). Absolute yield as well as ratio of input hESCs to differentiated ECs was calculated from the number of live cells recovered from differentiation cultures at days 0, 14 and 20. Purified ECs could be frozen and thawed in 10% DMSO with greater than 90% recovery.
as §1
Cryosections were immunocytochemically stained as previous described (James et al., Dev. Biol. 295: 90-102 (2006)). Briefly, samples were permeabilized in PBST and blocked in 5% donkey serum. Samples were incubated for 2 hours in primary antibodies blocking solution, washed 3 times in PBS and incubated in CY3-conjugated secondary antibodies (Jackson Laboratories) for 1 hour. Following washing some sections were counterstained for nucleic acids by TO-PRO3 (Invitrogen) before mounting and imaging by confocal microscopy. Primary antibodies included CD31 (DAKO), CD34 (DAKO), Phospho-HistoneH3, Smooth Muscle Actin (SMA) (DAKO) and VE-cadherin (R&D). […]

[3] = system: hESC-derived ECs; experiment: Absolute yield and ratio of input hESCs to differentiated ECs over phases 1 and 2
Description: as §2

[4] = system: Id1-YFP hESC-derived CD31+ cells; experiment: Id1-YFP hESC-derived CD31+ cells expanded with and without the TGFβ-inhibitor, flow cytometry
Description: A bacterial artificial chromosome (BAC) was modified in order to place yellow fluorescent protein (YFP) under control of the endogenous human Id1 promoter locus. This reporter construct was electroporated into the H9 hESC line, selected for BAC integration using antibiotic resistance and subcloned. Clones were assessed and selected based on expression of YFP in Id1 hESC derivatives following spontaneous differentiation. […] To track Id1 expression in live hESC differentiation cultures, a stable BAC transgenic hESC-line expressing yellow fluorescent protein driven by the Id1-promoter (Id1-YFP) (Example 3 herein) was used (FIG. 3A-C). Differentiated ECs were isolated at day 14 from Id1-YFP cultures (FIG. 1d), sub-fractionating the CD31+ population into Id1-YFP high- and low-expressing cells, and these populations were serially expanded for seven days with and without the TGFβ-inhibitor (FIG. 3B).

[5] = ECs isolated at day 14, 5 days with vs without SB431542

Structure (SMILES): NC(=O)c1ccc(-c2nc(-c3ccc4c(c3)OCO4)c(-c3ccccn3)[nH]2)cc1 [SB431542, 4-[4-(1,3-benzodioxol-5-yl)-5-(2-pyridinyl)-1H-imidazol-2-yl]benzamide]
- Oct3/4 and brachyury transcripts ([1]; QPCR, normalized to ACTB, time course of differentiation): accelerated the reduction
- hVPr-GFP+ ECs when inhibitor is included from the onset of differentiation ([1]; SB431542 from day 0): absence of hVPr-GFP+ ECs
- hVPr-GFP+CD31+ ECs ([1]; beginning at 9 days): significant increase
- expression of SMA ([1]; time course of differentiation): reducing expression of SMA
- cell yield of isolated ECs ([2]; ECs isolated at day 14, 5-day culture period with vs without SB431542): yielded more cells
- cell proliferation, percentage of Phospho-HistoneH3+ (PHH3) mitotic ECs [2, 5]: increased cell proliferation
- percentage of total population retaining α-SMA− CD31+ VEcadherin+ phenotype [2, 5]: higher percentage
- expansion in total number of vascular-committed hESC-derived ECs ([3]; TGFβ inhibition in phase 1 and 2, 20 days, vs control culture conditions): 36 fold
- population maintaining EC identity ([3]; after phase 1 and phase 2 TGFβ-inhibition): 95%
- ratio of ECs generated from every one hESC input ([3]; over the course of 20 days): 7.4 ECs per input hESC
- mean fluorescence intensity of CD31 ([4]; relative to unstimulated cells): decreased
- percentage of the CD31+ population ([4]; relative to unstimulated cells): increased
- Id1 expression (Id1-YFP) ([4]; seven days expansion with and without TGFβ-inhibitor): up-regulation of Id1 expression

Source: US20120301443A1, “METHODS FOR DEVELOPING ENDOTHELIAL CELLS FROM PLURIPOTENT CELLS AND ENDOTHELIAL CELLS DERIVED” (CORNELL UNIVERSITY, priority 2009, published 2012)
